Reference: US20230286970A1, “NOVEL OXADIAZOLE-BASED SELECTIVE HDAC6 INHIBITORS” (ITALFARMACO S.P.A., priority 2020, published 2023)

Legend:
recombinant human HDAC6 = recombinant human HDAC6 (Homo sapiens (Human), UniProt Q9UBN7); assay: Enzymatic screening, HDAC6 inhibition (fluorogenic FdL_G substrate); type: biochemical
Outline: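 Enzyme was preincubated with compound (8 doses, triplicate, 1% DMSO) in 25 mM Tris-HCl pH 8, 130 mM NaCl, 0.05% Tween-20, 10% glycerol, with BSA. A FLUOR DE LYS-Green substrate was then added, and fluorescence was read after developer plus 2 μM TSA.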

recombinant human HDAC1 = recombinant human HDAC1 (Homo sapiens (Human), UniProt Q13547); assay: Enzymatic screening, HDAC1 inhibition (fluorogenic FdL_G substrate); type: biochemical
recombinant human HDAC1, sequence (Q13547 whole entry): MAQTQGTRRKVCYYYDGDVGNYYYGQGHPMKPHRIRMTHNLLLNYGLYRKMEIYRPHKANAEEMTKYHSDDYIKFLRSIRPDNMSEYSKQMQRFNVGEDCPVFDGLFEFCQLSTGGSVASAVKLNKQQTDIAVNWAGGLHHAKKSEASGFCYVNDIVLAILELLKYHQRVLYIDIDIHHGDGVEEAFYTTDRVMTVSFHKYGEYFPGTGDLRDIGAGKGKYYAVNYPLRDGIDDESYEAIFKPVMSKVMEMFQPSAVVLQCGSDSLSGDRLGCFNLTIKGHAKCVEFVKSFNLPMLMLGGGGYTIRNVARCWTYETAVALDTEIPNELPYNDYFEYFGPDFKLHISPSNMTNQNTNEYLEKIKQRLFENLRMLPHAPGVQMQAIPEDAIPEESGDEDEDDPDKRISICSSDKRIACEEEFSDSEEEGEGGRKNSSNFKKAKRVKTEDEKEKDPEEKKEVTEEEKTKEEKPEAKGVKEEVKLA
Outline: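 Recombinant human HDAC1 inhibition was measured fluorometrically using the FLUOR DE LYS-Green (FdL_G) substrate. Compounds at 8 doses (1% DMSO final) in Tris-HCl pH 8 buffer with NaCl, Tween-20 and glycerol were preincubated in triplicate with enzyme and 1 mg/mL BSA, then given substrate. Developer I plus 2 μM TSA was added, and fluorescence read after 25 minutes in the dark.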

recombinant human HDAC6, sequence (Q9UBN7 whole entry): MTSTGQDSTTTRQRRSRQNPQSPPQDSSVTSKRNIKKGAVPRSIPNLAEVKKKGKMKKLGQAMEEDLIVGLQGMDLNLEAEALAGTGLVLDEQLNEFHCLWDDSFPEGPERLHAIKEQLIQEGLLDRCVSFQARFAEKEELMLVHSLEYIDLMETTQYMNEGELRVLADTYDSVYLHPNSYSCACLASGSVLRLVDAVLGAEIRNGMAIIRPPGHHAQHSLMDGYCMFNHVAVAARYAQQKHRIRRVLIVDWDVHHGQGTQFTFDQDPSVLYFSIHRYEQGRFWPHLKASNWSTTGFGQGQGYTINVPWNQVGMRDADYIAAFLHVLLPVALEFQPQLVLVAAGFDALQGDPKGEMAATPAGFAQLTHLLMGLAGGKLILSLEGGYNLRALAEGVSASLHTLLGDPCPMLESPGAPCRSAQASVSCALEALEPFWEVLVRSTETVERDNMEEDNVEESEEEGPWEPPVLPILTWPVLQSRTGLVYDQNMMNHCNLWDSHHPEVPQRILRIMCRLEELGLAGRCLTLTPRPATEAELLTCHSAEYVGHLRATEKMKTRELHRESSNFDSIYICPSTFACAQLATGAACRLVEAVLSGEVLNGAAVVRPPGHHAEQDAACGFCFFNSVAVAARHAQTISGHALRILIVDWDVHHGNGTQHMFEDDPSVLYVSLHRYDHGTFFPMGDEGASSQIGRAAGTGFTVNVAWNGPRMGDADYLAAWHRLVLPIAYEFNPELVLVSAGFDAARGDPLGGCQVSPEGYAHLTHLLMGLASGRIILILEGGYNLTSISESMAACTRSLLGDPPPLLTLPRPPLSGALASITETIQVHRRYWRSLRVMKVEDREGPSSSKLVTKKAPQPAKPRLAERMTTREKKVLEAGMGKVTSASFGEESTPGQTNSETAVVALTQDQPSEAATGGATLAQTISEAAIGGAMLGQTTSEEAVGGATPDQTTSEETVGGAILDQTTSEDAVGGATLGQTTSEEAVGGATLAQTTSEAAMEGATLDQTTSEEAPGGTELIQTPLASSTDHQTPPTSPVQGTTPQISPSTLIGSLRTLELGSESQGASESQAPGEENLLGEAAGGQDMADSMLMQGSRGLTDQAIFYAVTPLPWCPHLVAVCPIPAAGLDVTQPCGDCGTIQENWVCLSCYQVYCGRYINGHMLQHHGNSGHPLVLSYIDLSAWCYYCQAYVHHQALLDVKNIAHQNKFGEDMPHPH

Compound	IC50 (recombinant human HDAC6) [nM]	IC50 (recombinant human HDAC1) [µM]
FC(F)c1nnc(-c2ccc(Cn3nnc(C4(c5ccccc5)CC4)n3)cc2)o1 [compound 256, 2-(difluoromethyl)-5-(4-((5-(1-phenylcyclopropyl)-2H-tetrazol-2-yl)methyl)phenyl)-1,3,4-oxadiazole]	393	> 200
Nc1ncnc2cc(-c3cn(Cc4ccc(-c5nnc(C(F)F)o5)cn4)nn3)ccc12 [compound 317, 7-[1-[[5-[5-(difluoromethyl)-1,3,4-oxadiazol-2-yl]pyridin-2-yl]methyl]triazol-4-yl]quinazolin-4-amine]	34	> 1000
NC(=O)c1cc(-c2nnn(Cc3ccc(-c4nnc(C(F)F)o4)cc3)n2)ccc1N [compound 72, 2-amino-5-(2-(4-(5-(difluoromethyl)-1,3,4-oxadiazol-2-yl)benzyl)-2H-tetrazol-5-yl)benzamide]	30	> 200
O=C1Nc2ccc(-c3nnn(Cc4ccc(-c5nnc(C(F)F)o5)cn4)n3)cc2NC12CCCC2 [compound 27, 7′-(2-((5-(5-(difluoromethyl)-1,3,4-oxadiazol-2-yl)pyridin-2-yl)methyl)-2H-tetrazol-5-yl)-1′,4′-dihydro-3′H-spiro[cyclopentane-1,2′-quinoxalin]-3′-one]	9	> 200
Fc1c(Cn2cnc(-c3ccc(NC4=NCCN4)cc3)c2)ccc(-c2nnc(C(F)F)o2)c1F [compound 359, N-[4-[1-[[4-[5-(difluoromethyl)-1,3,4-oxadiazol-2-yl]-2,3-difluorophenyl]methyl]imidazol-4-yl]phenyl]-4,5-dihydro-1H-imidazol-2-amine]	11	> 1000
Nc1ccc(-c2cn(Cc3ncc(-c4nnc(C(F)F)o4)cn3)nn2)cn1 [compd. 125, 5-(1-((5-(5-(difluoromethyl)-1,3,4-oxadiazol-2-yl)pyrimidin-2-yl)methyl)-1H-1,2,3-triazol-4-yl)pyridin-2-amine]	48	> 200
NCC(=O)Nc1cccc(-c2cn(Cc3c(F)cc(-c4nnc(C(F)F)o4)cc3F)nn2)c1 [Compd. 144, 2-amino-N-(3-(1-(4-(5-(difluoromethyl)-1,3,4-oxadiazol-2-yl)-2,6-difluorobenzyl)-1H-1,2,3-triazol-4-yl)phenyl)acetamide]	60	> 200
Nc1ccc(-c2noc(Cc3ccc(-c4nnc(C(F)F)o4)c(F)c3)n2)cc1 [compound 408, 4-(5-(4-(5-(difluoromethyl)-1,3,4-oxadiazol-2-yl)-3-fluorobenzyl)-1,2,4-oxadiazol-3-yl)aniline]	80	> 1000
FC(F)c1nnc(-c2ccc(Cn3nnnc3-c3cccc(-n4cccn4)c3)cc2)o1 [compound 289, 2-(4-((5-(3-(1H-pyrazol-1-yl)phenyl)-1H-tetrazol-1-yl)methyl)phenyl)-5-(difluoromethyl)-1,3,4-oxadiazole]	203	> 200
NC(=O)c1cccc(-c2cn(Cc3ccc(-c4nnc(C(F)F)o4)cc3)cn2)c1 [compound 223, 3-(1-(4-(5-(difluoromethyl)-1,3,4-oxadiazol-2-yl)benzyl)-1H-imidazol-4-yl)benzamide]	161	> 200
Cn1c(N)nc2cc(-c3nnn(Cc4ccc(-c5nnc(C(F)F)o5)c(F)c4)n3)ccc21 [compound 373, 5-[2-[[4-[5-(difluoromethyl)-1,3,4-oxadiazol-2-yl]-3-fluorophenyl]methyl]tetrazol-5-yl]-1-methylbenzimidazol-2-amine]	26	> 1000
Cn1c(N)nc2cc(-c3nnn(Cc4ccc(-c5nnc(C(F)F)o5)cc4F)n3)ccc21 [compound 348, 5-[2-[[4-[5-(difluoromethyl)-1,3,4-oxadiazol-2-yl]-2-fluorophenyl]methyl]tetrazol-5-yl]-1-methylbenzimidazol-2-amine]	26	> 1000
Fc1cc(-c2nnn(Cc3ccc(-c4nnc(C(F)F)o4)cc3)n2)ccc1N1CCNCC1 [compound 224, 2-(difluoromethyl)-5-(4-((5-(3-fluoro-4-(piperazin-1-yl)phenyl)-2H-tetrazol-2-yl)methyl)phenyl)-1,3,4-oxadiazole]	162	> 200
FC(F)c1nnc(-c2cnc(Cn3nnnc3-c3cccs3)nc2)o1 [compound 299, 2-(difluoromethyl)-5-(2-((5-(thiophen-2-yl)-1H-tetrazol-1-yl)methyl)pyrimidin-5-yl)-1,3,4-oxadiazole]	110	> 200
Cn1c(N)nc2cc(-n3cc(Cc4ccc(-c5nnc(C(F)F)o5)cc4)nn3)ccc21 [compound 414, 5-[4-({4-[5-(difluoromethyl)-1,3,4-oxadiazol-2-yl]phenyl}methyl)-1H-1,2,3-triazol-1-yl]-1-methyl-1H-1,3-benzodiazol-2-amine]	461	1000
O=C1Nc2cc(-c3cn(Cc4ccc(-c5nnc(C(F)F)o5)cc4)nn3)ccc2NC12CCNCC2 [compound 277, 6′-(1-(4-(5-(difluoromethyl)-1,3,4-oxadiazol-2-yl)benzyl)-1H-1,2,3-triazol-4-yl)-1′,4′-dihydro-3′H-spiro[piperidine-4,2′-quinoxalin]-3′-one]	72	166
NC(=O)c1cccc(-c2cnn(Cc3ccc(-c4nnc(C(F)F)o4)cc3)c2)c1 [compound 333, 3-[1-[[4-[5-(difluoromethyl)-1,3,4-oxadiazol-2-yl]phenyl]methyl]pyrazol-4-yl]benzamide]	321	> 1000
NC(=O)c1cccc(-c2cn(Cc3ccc(-c4nnc(C(F)F)o4)cn3)cn2)c1 [compd. 305, 3-[1-[[5-[5-(difluoromethyl)-1,3,4-oxadiazol-2-yl]pyridin-2-yl]methyl]imidazol-4-yl]benzamide]	23	> 1000
Fc1cccc(-c2cn(Cc3ccc(-c4nnc(C(F)F)o4)cc3)nn2)c1 [compound 248, 2-(difluoromethyl)-5-(4-((4-(3-fluorophenyl)-1H-1,2,3-triazol-1-yl)methyl)phenyl)-1,3,4-oxadiazole]	275	> 200
Nc1ccc(-c2cn(Cc3ccc(-c4nnc(C(F)F)o4)cc3Cl)nn2)cn1 [compound 134, 5-(1-(2-chloro-4-(5-(difluoromethyl)-1,3,4-oxadiazol-2-yl)benzyl)-1H-1,2,3-triazol-4-yl)pyridin-2-amine]	52	> 200
CC(=O)Nc1cccc(-c2cn(Cc3ccc(-c4nnc(C(F)F)o4)cc3)nn2)c1 [compound 139, N-(3-(1-(4-(5-(difluoromethyl)-1,3,4-oxadiazol-2-yl)benzyl)-1H-1,2,3-triazol-4-yl)phenyl)acetamide]	55	> 200
Cn1c(N)nc2cc(-c3cn(Cc4ncc(-c5nnc(C(F)F)o5)cc4F)nn3)ccc21 [compound 349, 5-[1-[[5-[5-(difluoromethyl)-1,3,4-oxadiazol-2-yl]-3-fluoropyridin-2-yl]methyl]triazol-4-yl]-1-methylbenzimidazol-2-amine]	48	178
CNc1ccc2cc(-c3nnn(Cc4ccc(-c5nnc(C(F)F)o5)c(F)c4F)n3)ccc2n1 [compound 407, 6-(2-(4-(5-(difluoromethyl)-1,3,4-oxadiazol-2-yl)-2,3-difluorobenzyl)-2H-tetrazol-5-yl)-N-methylquinolin-2-amine]	136	1000
